Source: ChEMBL document CHEMBL1140455, “On the search of new I2-IBS aliphatic ligands: bis-guanidino carbonyl derivatives” (Bioorg Med Chem Lett, 2007)

Assay: Displacement of [3H]2-BFI from I2-IBS in human frontal cortex membranes
Format: cell membranes, Membrane

Row | SMILES | Log Ki
1 | N=C(N)NCCCCCCCCCCCCNC(=N)N | -7.48
2 | N=C(N)NC(=O)CCCCCCCCCCCCCCC(=O)NC(=N)N | -5.7
3 | N=C(N)NC(=O)CCCCCCCCC(=O)NC(=N)N | -6.11
4 | c1ccc2c(c1)OCC(C1=NCCN1)O2 (stereo not drawn) [IDAZOXAN] | -7.43
5 | N=C(N)NC(=O)CCCCCCCCCCCCC(=O)NC(=N)N | -5.91

Second part, the molecule after the results:

Row | Log Ki | SMILES
6 | -5.2 | N=C(N)NC(=O)CCCCCCCCCC(=O)NC(=N)N
7 | -5.06 | N=C(N)NC(=O)CCCCCCCCCCCC(=O)NC(=N)N
8 | -5.69 | N=C(N)NC(=O)CCCCCCCCCCC(=O)NC(=N)N
